Measured values: paper PMC7113852 (Antiviral Research, 2018)
Read-outs that look alike come from different tables or passages of the source.

Assays:
[1] = system: HIV-1; assay: HIV-1 infection of TZM-bl cells, firefly luciferase under HIV-1 LTR promoter; assay type: cell-based, Human immunodeficiency virus 1; conditions: for validation of anti-HIV-1 hit: validation experiment; for EC50: Human immunodeficiency virus 1, TZM-bl, read-out: EC50 other
[2] = system: RVFV (rRVFVΔNSs::Katushka); assay: microbe, parasite or virus in culture; assay type: cell-based, Rift Valley fever virus
[3] = system: CHIKV-2SG-NanoLuc; assay: microbe, parasite or virus in culture; assay type: cell-based, Chikungunya virus
[4] = system: CHIKV-2SG-NanoLuc; assay: microbe, parasite or virus in culture; assay type: cell-based, Chikungunya virus; remark: listed apart in the source
[5] = system: RRV-2SG-NanoLuc; assay: microbe, parasite or virus in culture; assay type: cell-based, Ross River virus
[6] = system: RRV-2SG-NanoLuc; assay: microbe, parasite or virus in culture; assay type: cell-based, Ross River virus; remark: listed apart in the source
[7] = in vitro; conditions: human
[8] = in vitro; conditions: human; remark: listed apart in the source
[9] = system: EV1; assay: microbe, parasite or virus in culture; assay type: cell-based, Echovirus 1
[10] = system: EV1; assay: microbe, parasite or virus in culture; assay type: cell-based, Echovirus 1; remark: listed apart in the source
[11] = in vitro; conditions: human; remark: listed apart in the source
[12] = system: A549 cells
[13] = Rift Valley fever virus, A549, read-out: EC50 other

CN(C)c1ccc(O)c2c1C[C@H]1C[C@H]3[C@H](N(C)C)C(O)=C(C(N)=O)C(=O)[C@@]3(O)C(O)=C1C2=O [Minocycline]
primary screen hit against HIV-1 ([1]; HIV-1, TZM-bl cells): anti-HIV-1 agents
validation of anti-HIV-1 hit ([1]; HIV-1, TZM-bl cells): confirmed
EC50 [1]: 6.84 µM
SI (minimal selectivity index, CC50/EC50) [2]: >11
screen hit against RVFV [2]: identified
EC50 [2, 13]: 9.52 µM

COc1c(C)c2c(c(O)c1C/C=C(\C)CCC(=O)O)C(=O)OC2 [Mycophenolic acid]
SI (minimal selectivity index, CC50/EC50) ([3]; CHIKV, RPE cells): >333
EC50 ([3]; Chikungunya virus, RPE, read-out: EC50 CTxG): 80 nM
antiviral activity in repeat experiments [4]: confirmed antiviral activity
EC50 ([4]; Chikungunya virus, RPE, read-out: EC50 other): 90 nM
SI (minimal selectivity index, CC50/EC50) [5]: >9
EC50 ([5]; Ross River virus, RPE, read-out: EC50 CTG): 3.19 µM
antiviral activity in repeat experiments [6]: confirmed antiviral activity
EC50 ([6]; Ross River virus, RPE, read-out: EC50 other): 860 nM
CC50 ([7]; CC50 CTG): > 30 µM
CC50 ([7]; CC50 CTxG): > 30 µM

CN[C@H](CC(C)C)C(=O)N[C@H]1C(=O)N[C@@H](CC(N)=O)C(=O)N[C@H]2C(=O)N[C@H]3C(=O)N[C@H](C(=O)N[C@H](C(=O)O)c4cc(O)cc(O)c4-c4cc3ccc4O)[C@H](O[C@H]3C[C@](C)(N)[C@@H](O)[C@H](C)O3)c3ccc(c(Cl)c3)Oc3cc2cc(c3O[C@@H]2O[C@H](CO)[C@@H](O)[C@H](O)[C@H]2O[C@H]2C[C@](C)(NCc3ccc(-c4ccc(Cl)cc4)cc3)[C@@H](O)[C@H](C)O2)Oc2ccc(cc2Cl)[C@H]1O [Oritavancin]
screen hit against RVFV [2]: identified
EC50 [2, 13]: 4.49 µM
CC50 [8]: 75.8 µM

Cc1ccc2c(c1)c1c3n2CCNC3CCC1 (centres unmarked) [Pirlindole]
SI (minimal selectivity index, CC50/EC50) [9]: 11
EC50 ([9]; Enterovirus B, RPE, read-out: EC50 CTxG): 2710 nM
antiviral activity in repeat experiments [10]: confirmed antiviral activity
EC50 ([10]; Enterovirus B, read-out: EC50 other): 8.92 µM
CC50 ([7]; CC50 CTG): 28.5 µM
CC50 ([7]; CC50 CTxG): > 30 µM

CO[C@H]1C[C@@H]2CC[C@@H](C)[C@@](O)(O2)C(=O)C(=O)N2CCCC[C@H]2C(=O)O[C@H]([C@H](C)C[C@@H]2CC[C@@H](O)[C@H](OC)C2)CC(=O)[C@H](C)/C=C(\C)[C@@H](O)[C@@H](OC)C(=O)[C@H](C)C[C@H](C)/C=C/C=C/C=C/1C [Rapamycin]
SI (minimal selectivity index, CC50/EC50) ([1]; HIV-1, TZM-bl cells): >1
primary screen hit against HIV-1 ([1]; HIV-1, TZM-bl cells): anti-HIV-1 agents
validation of anti-HIV-1 hit ([1]; HIV-1, TZM-bl cells): confirmed
EC50 [1]: 18.9 µM
CC50 [11]: > 30 µM

CC(C)c1nc(CN(C)C(=O)N[C@H](C(=O)N[C@@H](Cc2ccccc2)C[C@H](O)[C@H](Cc2ccccc2)NC(=O)OCc2cncs2)C(C)C)cs1 [Ritonavir]
screen hit against RVFV [2]: identified
EC50 [2, 13]: 26.8 µM

C[C@H]1c2cccc(O)c2C(=O)C2=C(O)[C@]3(O)C(=O)C(C(N)=O)=C(O)[C@@H](N(C)C)[C@@H]3[C@@H](O)[C@@H]21 [doxycycline]
screen hit against RVFV [2]: identified

COc1cc2ncnc(Nc3ccc(F)c(Cl)c3)c2cc1OCCCN1CCOCC1 [gefitinib]
screen hit against RVFV [2]: identified

CC[C@@]1(O)C(=O)OCc2c1cc1n(c2=O)Cc2cc3c(CN(C)C)c(O)ccc3nc2-1 [topotecan]
screen hit against RVFV [2]: identified

Bortezamib
screen hit against RVFV [2]: identified
EC50 ([2]; read-out: EC50 other): < 0.39 µM
CC50 [12]: > 100 µM
